# Source: publication PMC11435625, “In Vitro Hepatic Clearance Evaluations of Per- and Polyfluoroalkyl Substances (PFAS) across Multiple Structural Categories” (Toxics, 2024)
# How the values were obtained:
# [1] = test system: pooled primary human hepatocyte suspensions; experiment: Bayesian (MCMC, invitroTKstats) analysis of hepatic clearance data; settings: for Clint.1.Med: Level-4 Bayesian estimate, posterior median, Clint.1 series (Clint.10 all NA)
# Source text: Markov Chain Monte Carlo was employed in a Bayesian analysis to estimate uncertainty of the hepatic clearance point measures as previously described, but with some modifications [10]. Briefly, after organizing PFAS-level data into a single file, the relationship between the relevant measurement process parameters was described in a graphic model in JAGS language [13] interfaced through R. For hepatic clearance data, the model describes the PFAS-specific mass spectrometric response factor between analyte peak ratio (to internal standard) and chemical concentration. […] The assumed prior for whether the chemical degraded abiotically in vitro followed a Bernoulli distribution with a 5% chance of abiotic degradation. Separate biotic and abiotic components for chemical elimination were estimated, each with a slope following an assumed uniform prior distribution bounded between the zero and the -log (limit of quantitation/Ctest). In scenarios where an external calibration without internal standard was used, the response factor was calculated using the analyte peak alone, introducing additional uncertainty due to the inability to normalize for recovery issues. The model was analyzed jointly by JAGS using five Markov chains. Convergence was identified by requiring the five chains to be consistent, as indicated by the potential scale reduction factor [14] being less than 1.1. The analysis was performed using EPA-developed R package invitroTKstats, available upon request.
# [2] = IVIVE: steady-state concentration (Css), generic HTTK model; design: species or system human; settings: for Css (mg/L) / Css (uM): Assuming 1 mg/kg/day dose rate, BW 70 kg; for CLhep: QL 1500000 uL/min; for Fub: fub=fup/(B:P), Fub set to 1 if needed; for CLint: scaled to whole liver: HPGL 110 mill cells/g, Vl 1596 g
# In short: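 Human Css estimated by IVIVE: plasma protein binding converted to blood fraction unbound via blood-to-plasma partitioning, and experimental Clint scaled with liver scalars to whole liver clearance. AEDs then derived by reverse dosimetry from Css and PFAS in vitro POD, defined as fifth-percentile AC50.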
# plasma protein = settings: fraction unbound in plasma, input for IVIVE calculations; cited from earlier work
# [3] = test system: pooled primary human hepatocyte suspensions; experiment: Hepatic clearance assay (substrate depletion, LC-MS); settings: in µL/min/10^6 cells; for CLint for HTTK: CLint value carried into HTTK/IVIVE; for in vitro CLint exp assay / Unadj Clint: pooled primary human hepatocyte suspensions; for Unadj Clint: unadjusted hepatic intrinsic clearance, Table S4
# In short: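 Substrate depletion at 1 μM PFAS in pooled cryopreserved human hepatocytes (~0.5 × 10^6 viable cells/mL, 50-donor pool), 37 °C with shaking, sampled 0–240 min in triplicate. Quantified by LC-MS in negative ion mode against matrix-matched calibration; media-only or heat-inactivated cells as nonmetabolic-loss controls.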
smiles,measurement,setting,value
O=C(O)C(F)(F)C(F)(F)C(F)(F)C(F)(F)C(F)(F)C(F)(F)C(F)(F)C(F)(F)C(F)(F)C(F)F,Clint.1.Med,[1],0
same,Css (mg/L),[2],160.90 mg/L
same,Css (uM),[2],294.69 µM
same,CLhep,[2],0.000 L/h
same,Fub,[2],0.002727
same,CLint,[2],0 µL/min
same,Mean fu,plasma protein,0.0015
same,CLint for HTTK,[3],0
same,in vitro CLint exp assay,[3],0
O=C(O)CCC(F)(F)C(F)(F)C(F)(F)C(F)(F)C(F)(F)F,Clint.1.Med,[1],19
same,Css (mg/L),[2],2.11 mg/L
same,Css (uM),[2],6.18 µM
same,CLhep,[2],1.318 L/h
same,Fub,[2],0.01073
same,CLint,[2],2078630 µL/min
same,Mean fu,plasma protein,0.0059
same,CLint for HTTK,[3],11.84
same,in vitro CLint exp assay,[3],11.84
O=S(=O)(O)CCC(F)(F)C(F)(F)C(F)(F)C(F)(F)F,Clint.1.Med,[1],0
same,Css (mg/L),[2],6.27 mg/L
same,Css (uM),[2],19.12 µM
same,CLhep,[2],0.408 L/h
same,Fub,[2],0.009091
same,CLint,[2],751397 µL/min
same,Mean fu,plasma protein,0.005
same,CLint for HTTK,[3],4.28
same,in vitro CLint exp assay,[3],4.28
O=S(=O)(O)CCC(F)(F)C(F)(F)C(F)(F)C(F)(F)C(F)(F)C(F)(F)F,Clint.1.Med,[1],0
same,Css (mg/L),[2],5.29 mg/L
same,Css (uM),[2],12.36 µM
same,CLhep,[2],0.382 L/h
same,Fub,[2],0.026
same,CLint,[2],245784 µL/min
same,Mean fu,plasma protein,0.0143
same,CLint for HTTK,[3],1.4
same,in vitro CLint exp assay,[3],1.4
O=S(=O)(O)CCC(F)(F)C(F)(F)C(F)(F)C(F)(F)C(F)(F)C(F)(F)C(F)(F)C(F)(F)F,Clint.1.Med,[1],0
same,Css (mg/L),[2],1.81 mg/L
same,Css (uM),[2],3.42 µM
same,CLhep,[2],1.146 L/h
same,Fub,[2],0.072
same,CLint,[2],268607 µL/min
same,Mean fu,plasma protein,0.0396
same,CLint for HTTK,[3],1.53
same,in vitro CLint exp assay,[3],1.53
CNS(=O)(=O)C(F)(F)C(F)(F)C(F)(F)C(F)(F)C(F)(F)C(F)(F)C(F)(F)C(F)(F)F,Clint.1.Med,[1],48.7
O=C(O)C(F)(F)OC(F)(F)C(F)(F)OC(F)(F)F,Clint.1.Med,[1],0
same,Css (mg/L),[2],77.85 mg/L
same,Css (uM),[2],263.04 µM
same,CLhep,[2],0.000 L/h
same,Fub,[2],0.005636
same,CLint,[2],0 µL/min
same,Mean fu,plasma protein,0.0031
same,CLint for HTTK,[3],0
same,in vitro CLint exp assay,[3],0
C[N+](C)(C)CCCNS(=O)(=O)C(F)(F)C(F)(F)C(F)(F)C(F)(F)C(F)(F)C(F)(F)C(F)(F)C(F)(F)F,Clint.1.Med,[1],0
O=S(=O)([O-])C(F)(F)C(F)(F)C(F)(F)C(F)(F)F.[K+],Clint.1.Med,[1],0
same,Css (mg/L),[2],52.47 mg/L
same,Css (uM),[2],174.92 µM
same,CLhep,[2],0.000 L/h
same,Fub,[2],0.008364
same,CLint,[2],0 µL/min
same,Mean fu,plasma protein,0.0046
same,CLint for HTTK,[3],0
same,in vitro CLint exp assay,[3],0
O=P(O)(O)CCC(F)(F)C(F)(F)C(F)(F)C(F)(F)C(F)(F)C(F)(F)F [2-(Perfluorohexyl)ethylphosphonic acid],Clint.1.Med,[1],0
same,Css (mg/L),[2],19.62 mg/L
same,Css (uM),[2],45.85 µM
same,CLhep,[2],0.000 L/h
same,Fub,[2],0.02236
same,CLint,[2],0 µL/min
same,Mean fu,plasma protein,0.0123
same,CLint for HTTK,[3],0
same,in vitro CLint exp assay,[3],0
same,Unadj Clint,[3],0.71
"O=C(O)C=C(C(F)(F)F)C(F)(F)F [3,3-Bis(trifluoromethyl)-2-propenoic acid]",Clint.1.Med,[1],0
same,Unadj Clint,[3],1.82
O=C(O)CCC(F)(F)C(F)(F)C(F)(F)F [3:3 Fluorotelomer carboxylic acid],Clint.1.Med,[1],0
same,Unadj Clint,[3],0.00
O=C(O)C(F)(F)C(F)(F)C(F)F [4H-Perfluorobutanoic_acid],Clint.1.Med,[1],0
N.O=C(O)C(F)(F)C(F)(F)C(F)(F)C(F)(F)C(F)(F)C(F)(F)C(F)(F)F [Ammonium_perfluorooctanoate],Clint.1.Med,[1],10.8
CNS(=O)(=O)C(F)(F)C(F)(F)C(F)(F)C(F)(F)C(F)(F)C(F)(F)C(F)(F)C(F)(F)F [N-Methylperfluorooctanesulfonamide],"metabolic clearance call, experimental and Bayesian analyses in agreement",[1]; both analyses agreed,metabolized
same,Unadj Clint,[3],33.23
O=C(Cl)C(F)(F)C(F)(F)C(F)(F)C(F)(F)C(F)(F)C(F)(F)C(F)(F)F [Pentadecafluorooctanoyl chloride],Clint.1.Med,[1],0
same,Unadj Clint,[3],0.00
O=C(O)C(F)(F)C(F)(F)C(F)(F)OC(F)(F)F [Perfluoro(4-methoxybutanoic)_acid],Clint.1.Med,[1],0
O=S(=O)(Cl)C(F)(F)C(F)(F)C(F)(F)C(F)(F)C(F)(F)C(F)(F)C(F)(F)C(F)(F)F [Perfluoro-1-octanesulfonyl_chloride],Clint.1.Med,[1],0
O=C(O)C(F)(F)C(F)(F)OC(F)(F)F [Perfluoro-3-methoxypropanoic acid],Clint.1.Med,[1],0
same,Unadj Clint,[3],0.00
O=C(O)C(F)(F)C(F)(F)C(F)(F)OC(F)(C(F)(F)F)C(F)(F)F [Perfluoro-4-isopropoxybutanoic_acid],Clint.1.Med,[1],0
O=S(=O)(O)C(F)(F)C(F)(F)C(F)(F)C(F)(F)C(F)(F)C(F)(F)C(F)(F)F [Perfluoroheptanesulfonic_acid],Clint.1.Med,[1],0
O=C(Cl)C(F)(F)C(F)(F)C(F)(F)C(F)(F)C(F)(F)C(F)(F)F [Perfluoroheptanoyl chloride],Clint.1.Med,[1],0
same,Unadj Clint,[3],0.00
NS(=O)(=O)C(F)(F)C(F)(F)C(F)(F)C(F)(F)C(F)(F)C(F)(F)F [Perfluorohexanesulfonamide],Clint.1.Med,[1],0
same,Unadj Clint,[3],0.00
O=S(=O)(O)C(F)(F)C(F)(F)C(F)(F)C(F)(F)C(F)(F)C(F)(F)F [Perfluorohexanesulfonic_acid],Clint.1.Med,[1],0
O=C(O)C(F)(F)C(F)(F)C(F)(F)C(F)(F)C(F)(F)C(F)(F)C(F)(F)C(F)(F)F [Perfluorononanoic_acid],Clint.1.Med,[1],10.4
O=S(=O)(O)C(F)(F)C(F)(F)C(F)(F)C(F)(F)C(F)(F)C(F)(F)C(F)(F)C(F)(F)F [Perfluorooctanesulfonate],Clint.1.Med,[1],0
same,Unadj Clint,[3],0.00
O=C(O)C(F)(F)C(F)(F)C(F)(F)C(F)(F)C(F)(F)C(F)(F)C(F)(F)F [Perfluorooctanoic_acid],Clint.1.Med,[1],0
O=C(O)C(F)(F)C(F)(F)C(F)(F)C(F)(F)F [Perfluoropentanoic_acid],Clint.1.Med,[1],0
O=C(O)C(F)(F)C(F)(F)F [Perfluoropropanoic_acid],Clint.1.Med,[1],0
O=C(O)C(F)(F)C(F)(F)C(F)(F)C(F)(F)C(F)(F)C(F)(F)C(F)(F)C(F)(F)C(F)(F)C(F)(F)C(F)(F)C(F)(F)C(F)(F)F [Perfluorotetradecanoic acid (PFTeDA)],Clint.1.Med,[1],0
O=C(O)C(F)(F)C(F)(F)C(F)(F)C(F)(F)C(F)(F)C(F)(F)C(F)(F)C(F)(F)C(F)(F)C(F)(F)C(F)(F)C(F)(F)F [Perfluorotridecanoic_acid],Clint.1.Med,[1],0
O=S(=O)([O-])C(F)(F)C(F)(F)C(F)(F)C(F)(F)C(F)(F)C(F)(F)F.[K+] [Potassium perfluorohexanesulfonate],Clint.1.Med,[1],0
same,Unadj Clint,[3],0.00
O=S(=O)([O-])C(F)(F)C(F)(F)C(F)(F)C(F)(F)C(F)(F)C(F)(F)C(F)(F)C(F)(F)F.[K+] [Potassium_perfluorooctanesulfonate],Clint.1.Med,[1],0
O=S(=O)([O-])C(F)(F)C(F)(F)C(F)(F)C(F)(F)C(F)(F)C(F)(F)C(F)(F)C(F)(F)C(F)(F)C(F)(F)F.[Na+] [Sodium_perfluorodecanesulfonate],Clint.1.Med,[1],4.87
